Here are results for 15 compounds from ChEMBL document CHEMBL5244209, “Antiplasmodial and antimalarial activities of quinolone derivatives: An overview” (Eur J Med Chem, 2018).

SMILES strings stand for the structures. Values after ≈ are worked out from the molar mass of the structure shown.

The test system of experiment [1] is Plasmodium falciparum. Kind of experiment: Antimalarial activity against Plasmodium falciparum Dd2. It counts as functional, organism-based.
The test system of a further experiment is Plasmodium berghei. Briefly: Antiplasmodial activity against liver stage Plasmodium berghei ANKA infected in human HepG2 cells measured after 44 hrs. It counts as functional, organism-based. The following applies: HepG2, 44 h.
The subject of experiment [2] is Plasmodium falciparum. Briefly: Antimalarial activity against chloroquine-sensitive Plasmodium falciparum 3D7. It counts as functional, organism-based.
In a further experiment the test system is FM3A. Briefly: Cytotoxicity against mouse FM3A cells. The format is functional, cell-based.
Experiment [3] has as its system Plasmodium falciparum. Briefly: Antiplasmodial activity against chloroquine-resistant Plasmodium falciparum Fcb1. It counts as functional, organism-based.
The subject of experiment [4] is Plasmodium falciparum. Briefly: Antimalarial activity against blood stage chloroquine-sensitive Plasmodium falciparum NF54-R infected in erythrocytes assessed as reduction in parasite growth preincubated for 72 hrs followed by addition of [3H]Hypoxanthine and measured after 24 hrs by liquid scintillation counting method. It counts as functional, organism-based. Particulars: Erythrocyte.

Experiment [5] deals with Plasmodium falciparum. Briefly: Antiplasmodial activity against asynchronous Plasmodium falciparum 3D7. The format is functional, organism-based.
Experiment [6] has as its system Plasmodium falciparum. Briefly: Antiplasmodial activity against chloroquine-sensitive Plasmodium falciparum FC measured after 48 hrs. The format is functional.
The subject of experiment [7] is Plasmodium falciparum. Briefly: Antiplasmodial activity against chloroquine-sensitive Plasmodium falciparum. The format is functional, organism-based.
In experiment [8] the test system is Plasmodium falciparum. Kind of experiment: Antiplasmodial activity against asynchronous Plasmodium falciparum CS2. It counts as functional, organism-based.
Experiment [9] relates to Plasmodium falciparum. Briefly: Antiplasmodial activity against chloroquine-resistant Plasmodium falciparum K1 measured after 48 hrs. The format is functional.
In experiment [10] the test system is Plasmodium falciparum. Kind of experiment: Antimalarial activity against chloroquine-sensitive Plasmodium falciparum FCC1 measured after 48 hrs. The format is functional, organism-based. Particulars: FCC1, 48 h.
Experiment [11] deals with Plasmodium falciparum. Kind of experiment: Antiplasmodial activity against chloroquine-sensitive Plasmodium falciparum FC measured after 96 hrs. The format is functional.
The test system of experiment [12] is Plasmodium falciparum. Kind of experiment: Antiplasmodial activity against asynchronous Plasmodium falciparum K1. It counts as functional, organism-based.
In another experiment the test system is Plasmodium yoelii yoelii. Kind of experiment: Antimalarial activity against hepatic stage Plasmodium yoelii yoelii 265 BY for 48 hrs with media renew every 24 hrs. The format is functional, organism-based.
Experiment [13] deals with Plasmodium falciparum. Kind of experiment: Antiplasmodial activity against synchronized Plasmodium falciparum 3D7. The format is functional, organism-based.
The subject of experiment [14] is Plasmodium falciparum. Kind of experiment: Antiplasmodial activity against chloroquine-resistant Plasmodium falciparum. The format is functional, organism-based.
In experiment [15] the test system is Plasmodium falciparum. Kind of experiment: Antiplasmodial activity against chloroquine-sensitive Plasmodium falciparum K1 measured after 96 hrs. The format is functional.
Experiment [16] has as its system Plasmodium falciparum. Briefly: Antiplasmodial activity against synchronized Plasmodium falciparum CS2. It counts as functional, organism-based.
Experiment [17] deals with Plasmodium falciparum. Kind of experiment: Antimalarial activity against chloroquine-resistant Plasmodium falciparum VNS measured after 48 hrs. The format is functional, organism-based.
Experiment [18] deals with Plasmodium falciparum. Kind of experiment: Antiplasmodial activity against synchronized Plasmodium falciparum K1. It counts as functional, organism-based.
Experiment [19] has as its system Plasmodium falciparum. Briefly: Antiplasmodial activity against chloroquine-resistant Plasmodium falciparum Palo Alto. It counts as functional, organism-based.
For experiment [20], the system named is Plasmodium falciparum. Kind of experiment: Antiplasmodial activity against chloroquine-resistant Plasmodium falciparum FCR3. It counts as functional, organism-based.
The subject of experiment [21] is Plasmodium falciparum. Kind of experiment: Antiplasmodial activity against chloroquine-sensitive Plasmodium falciparum 3D7. It counts as functional, organism-based.
Experiment [22] relates to Plasmodium falciparum. Briefly: Antiplasmodial activity against chloroquine-resistant Plasmodium falciparum W2. It counts as functional, organism-based.
For experiment [23], the system named is Plasmodium falciparum. Kind of experiment: Antimalarial activity against blood stage chloroquine-sensitive Plasmodium falciparum 3D7 infected in erythrocytes assessed as reduction in parasite growth preincubated for 72 hrs followed by addition of [3H]Hypoxanthine and measured after 24 hrs by liquid scintillation counting method. Particulars: 3D7, Erythrocyte. The format is functional, organism-based.

In experiment [24] the test system is Plasmodium falciparum. Briefly: Antiplasmodial activity against chloroquine-resistant Plasmodium falciparum Bres1. The format is functional, organism-based.

As a reminder, the IC50 is the concentration that gives 50% inhibition. In the experiment on Plasmodium falciparum [1], `COc1ccc2c(=O)c(-c3ccc(Oc4ccc(OC(F)(F)F)cc4)cc3)c(C)[nH]c2c1` gave an IC50 of 0.00385 µM.
`COc1cc2[nH]c(C)c(-c3ccccc3C)c(=O)c2cc1Cl` came in with an IC50 in the experiment on Plasmodium berghei of 0.00282 µM.
In the case of `COc1cc2[nH]c(C)c(-c3ccc(C(F)(F)F)cc3)c(=O)c2cc1Cl`, in the experiment on Plasmodium berghei, inhibition was half-maximal at 0.00307 µM (IC50).
In the case of `O=C(O)/C(=C\n1cc(C(=O)O)c(=O)c2cc(F)ccc21)c1cccnc1`, the concentration for half-maximal inhibition (IC50) was 24 µM in the experiment on Plasmodium falciparum [2] and over 100 µM in the experiment on FM3A.
On to `CCOC(=O)/C(=C\n1cc(C(=O)O)c(=O)c2cc(F)ccc21)c1ccccn1`, for which the 50% inhibitory concentration (IC50) with Plasmodium falciparum [2] is 21 µM; with FM3A, over 100 µM.
Turning to `CCOC(=O)c1cn(/C=C(\C(=O)O)c2cccnc2)c2ccc(F)cc2c1=O`, the IC50 was 29 µM in the experiment with Plasmodium falciparum [2] and over 100 µM with FM3A.
On to `CCOC(=O)/C(=C\n1cc(C(=O)OCC)c(=O)c2cc(F)ccc21)c1ccccn1`, for which the IC50 was 21 µM in the experiment with Plasmodium falciparum [2] and over 100 µM with FM3A.
On to `CCOC(=O)/C(=C\n1cc(C(=O)OCC)c(=O)c2cc(F)ccc21)c1ccncc1`, for which the figures for the IC50 with Plasmodium falciparum [2] and with FM3A were 8.2 µM and over 24 µM, respectively.
As for `CCOC(=O)/C(=C\n1cc(C(=O)OCC)c(=O)c2cc(F)ccc21)c1cccnc1`, the concentration for half-maximal inhibition (IC50) with Plasmodium falciparum [2] worked out at 26 µM; with FM3A, 100 µM.
As for `CC(C)=CCC/C(C)=C/CC/C(C)=C/Cc1c(C)[nH]c2ccccc2c1=O` [AURACHIN D], in the experiment with Plasmodium falciparum [3], the midpoint of inhibition, the IC50, lay at 0.04 µg/mL (≈ 0.11 µM).
`CCN(CC)CCCC(C)Nc1ccnc2cc(Cl)ccc12` (centres undefined) [CHLOROQUINE] had an IC50 in the experiment on Plasmodium berghei of over 0.0012 µM.
For orientation: MIC means the smallest concentration in the dilution series that meets the test's criterion for growth inhibition. For the compound `O=C(O)c1cn(C2CC2)c2cc(N3CCNCC3)c(F)cc2c1=O` [CIPROFLOXACIN], the IC50 with Plasmodium falciparum [4] is 3.4 µg/mL (≈ 10.3 µM); with Plasmodium falciparum [5], 31 µM; in the experiment with Plasmodium falciparum [7], 6.38 µg/mL (≈ 19.3 µM); in the experiment with Plasmodium falciparum [8], 24 µM; with Plasmodium falciparum [10], 260 µM; with Plasmodium falciparum [12], 38 µM. Besides, the IC50 in the experiment on Plasmodium yoelii yoelii came out at 44 µg/mL (≈ 133 µM); in the experiment on Plasmodium falciparum [13], 31 µM; in the experiment with Plasmodium falciparum [14], 6.38 µg/mL (≈ 19.3 µM); in the experiment on Plasmodium falciparum [16], 20 µM; with Plasmodium falciparum [17], 380 µM; with Plasmodium falciparum [18] it was 32 µM. The MIC in the experiment on Plasmodium falciparum [6] turned out to be 28.1 µg/mL (≈ 84.8 µM); in the experiment on Plasmodium falciparum [9], 27.2 µg/mL (≈ 82.1 µM); against Plasmodium falciparum [11], 2.8 µg/mL (≈ 8.45 µM); against Plasmodium falciparum [15], 4.4 µg/mL (≈ 13.3 µM).
Consider `CCn1cc(C(=O)O)c(=O)c2cc(F)c(N3CCNCC3)cc21` [NORFLOXACIN], for which the half-maximal inhibitory concentration (IC50) in the experiment on Plasmodium falciparum [4] amounted to 6.7 µg/mL (≈ 21 µM); with Plasmodium falciparum [5] it was 66 µM; in the experiment with Plasmodium falciparum [7], 11.2 µg/mL (≈ 35.2 µM); in the experiment on Plasmodium falciparum [19], 54.1 µM; with Plasmodium falciparum [8], 55 µM; in the experiment on Plasmodium falciparum [10], 620 µM. Further, the half-inhibitory concentration (IC50) with Plasmodium falciparum [20] was found to be 58.6 µM; with Plasmodium falciparum [12], 54 µM; with Plasmodium yoelii yoelii it was 17.8 µg/mL (≈ 55.7 µM); in the experiment with Plasmodium falciparum [13] it was 55 µM; in the experiment with Plasmodium falciparum [21], 55.3 µM; in the experiment on Plasmodium falciparum [14], 11.2 µg/mL (≈ 35.2 µM). The IC50 in the experiment with Plasmodium falciparum [16] was found to be 59 µM; with Plasmodium falciparum [17], 510 µM; with Plasmodium falciparum [18], 67 µM; in the experiment on Plasmodium falciparum [22], 74.6 µM; in the experiment with Plasmodium falciparum [23], 17.2 µg/mL (≈ 53.9 µM).
As to `CC1COc2c(N3CCN(C)CC3)c(F)cc3c(=O)c(C(=O)O)cn1c23` (centres undefined) [OFLOXACIN], the IC50 in the experiment with Plasmodium falciparum [4] is 58.6 µg/mL (≈ 162 µM); in the experiment with Plasmodium falciparum [7], 22.3 µg/mL (≈ 61.7 µM); in the experiment with Plasmodium falciparum [19], 114 µM; in the experiment with Plasmodium falciparum [10], 1720 µM; with Plasmodium falciparum [20] it was 158 µM; in the experiment on Plasmodium yoelii yoelii, 64 µg/mL (≈ 177 µM). Further, the IC50 is 152 µM in the experiment on Plasmodium falciparum [21]; 22.3 µg/mL (≈ 61.7 µM) in the experiment with Plasmodium falciparum [14]; 195 µM with Plasmodium falciparum [24]; 1770 µM in the experiment with Plasmodium falciparum [17]; 112 µM in the experiment with Plasmodium falciparum [22]; 113 µg/mL (≈ 313 µM) in the experiment on Plasmodium falciparum [23].
Consider `N[C@@H]1[C@H]2CN(c3nc4c(cc3F)c(=O)c(C(=O)O)cn4-c3ccc(F)cc3F)C[C@@H]12` [TROVAFLOXACIN], for which the IC50 with Plasmodium falciparum [4] worked out at 9.2 µg/mL (≈ 22.1 µM); with Plasmodium falciparum [5] it was 36 µM; in the experiment on Plasmodium falciparum [8], 34 µM; in the experiment on Plasmodium falciparum [12] it was 33 µM; in the experiment on Plasmodium falciparum [13], 34 µM; in the experiment on Plasmodium falciparum [18], 18 µM. For the same compound, the IC50 in the experiment with Plasmodium falciparum [23] worked out at 9.6 µg/mL (≈ 23.1 µM).
